Measurements reported in Sander's compilation of Henry's law constants (doi:10.1021/es020599y).

Assay: Henry solubility constant Hcp at 298.15 K (mol/(m3 Pa))
Conditions: reference: Bamford et al. (2002)

| Compound | Henry solubility constant Hcp |
| --- | --- |
| Clc1ccc(-c2cc(Cl)c(Cl)c(Cl)c2Cl)c(Cl)c1 [2,2',3,4,4',5-hexachlorobiphenyl] | 0.045 |
| Clc1cc(Cl)c(-c2c(Cl)cc(Cl)c(Cl)c2Cl)cc1Cl [2,2',3,4,4',5',6-heptachlorobiphenyl] | 0.017 |
| Clc1ccccc1-c1ccccc1Cl [2,2'-dichlorobiphenyl] | 0.046 |
| Clc1cc(-c2c(Cl)c(Cl)cc(Cl)c2Cl)cc(Cl)c1Cl [2,3,3',4',5,5',6-heptachlorobiphenyl] | 0.032 |
| Clc1cc(Cl)c(Cl)c(-c2cc(Cl)c(Cl)cc2Cl)c1 [2,2',3,4',5,5'-hexachlorobiphenyl] | 0.017 |
| Clc1ccc(-c2c(Cl)cccc2Cl)c(Cl)c1Cl [2,2',3,4,6'-pentachlorobiphenyl] | 0.022 |
| Clc1cc(Cl)c(-c2ccc(Cl)c(Cl)c2)c(Cl)c1 [2,3',4,4',6-pentachlorobiphenyl] | 0.015 |
| Clc1cc(-c2ccc(Cl)c(Cl)c2Cl)cc(Cl)c1Cl [2,3,3',4,4',5'-hexachlorobiphenyl] | 0.034 |
| Clc1ccc(-c2ccccc2Cl)cc1Cl [2,3',4'-trichlorobiphenyl] | 0.036 |
| Clc1cccc(-c2ccc(Cl)c(Cl)c2Cl)c1Cl [2,2',3,3',4-pentachlorobiphenyl] | 0.027 |
| Clc1ccc(Cl)c(-c2c(Cl)ccc(Cl)c2Cl)c1Cl [2,2',3,3',6,6'-hexachlorobiphenyl] | 0.009 |
| Clc1ccc(-c2cc(Cl)ccc2Cl)cc1 [2,4',5-trichlorobiphenyl] | 0.034 |
| Clc1ccc(-c2cc(Cl)c(Cl)c(Cl)c2)cc1 [3,4,4',5-tetrachlorobiphenyl] | 0.041 |
| Clc1ccc(Cl)c(-c2cc(Cl)c(Cl)c(Cl)c2Cl)c1 [2,2',3,4,5,5'-hexachlorobiphenyl] | 0.02 |
| Clc1ccc(-c2c(Cl)ccc(Cl)c2Cl)cc1 [2,3,4',6-tetrachlorobiphenyl] | 0.025 |
| Clc1ccc(-c2cccc(Cl)c2)cc1 [3,4'-dichlorobiphenyl] | 0.049 |
| Clc1cc(-c2cc(Cl)c(Cl)c(Cl)c2Cl)c(Cl)c(Cl)c1Cl [2,2',3,3',4,4',5,5'-octachlorobiphenyl] | 0.1 |
| Clc1cc(-c2cc(Cl)c(Cl)c(Cl)c2)cc(Cl)c1Cl [3,3',4,4',5,5'-hexachlorobiphenyl] | 0.047 |
| Clc1cccc(-c2ccccc2)c1Cl [2,3-dichlorobiphenyl] | 0.043 |
| Clc1ccc(-c2cc(Cl)c(Cl)cc2Cl)c(Cl)c1 [2,2',4,4',5-pentachlorobiphenyl] | 0.021 |
| Clc1ccc(-c2ccc(Cl)c(Cl)c2Cl)c(Cl)c1 [2,2',3,4,4'-pentachlorobiphenyl] | 0.023 |
| Clc1cc(Cl)c(-c2cc(Cl)c(Cl)c(Cl)c2)cc1Cl [2,3',4,4',5,5'-hexachlorobiphenyl] | 0.027 |
| Clc1cc(Cl)c(Cl)c(-c2c(Cl)ccc(Cl)c2Cl)c1 [2,2',3,3',5,6'-hexachlorobiphenyl] | 0.015 |
| Clc1ccccc1-c1c(Cl)cccc1Cl [2,2',6-trichlorobiphenyl] | 0.033 |
| Clc1cc(Cl)c(Cl)c(-c2ccc(Cl)c(Cl)c2)c1 [2,3,3',4',5-pentachlorobiphenyl] | 0.043 |
| Clc1ccc(-c2cc(Cl)ccc2Cl)c(Cl)c1 [2,2',4,5'-tetrachlorobiphenyl] | 0.027 |

| Compound | Henry solubility constant Hcp |
| --- | --- |
| Clc1cc(-c2c(Cl)ccc(Cl)c2Cl)c(Cl)c(Cl)c1Cl [2,2',3,3',4,5,6'-heptachlorobiphenyl] | 0.022 |
| Clc1cccc(-c2ccccc2Cl)c1 [2,3'-dichlorobiphenyl] | 0.043 |
| Clc1ccc(-c2ccccc2)c(Cl)c1 [2,4-dichlorobiphenyl] | 0.037 |
| Clc1cc(Cl)c(-c2c(Cl)ccc(Cl)c2Cl)cc1Cl [2,2',3,4',5',6-hexachlorobiphenyl] | 0.015 |
| Clc1ccc(-c2c(Cl)ccc(Cl)c2Cl)cc1Cl [2,3,3',4',6-pentachlorobiphenyl] | 0.023 |
| Clc1ccc(-c2cc(Cl)c(Cl)c(Cl)c2Cl)cc1Cl [2,3,3',4,4',5-hexachlorobiphenyl] | 0.029 |
| Clc1ccc(-c2cc(Cl)cc(Cl)c2Cl)cc1 [2,3,4',5-tetrachlorobiphenyl] | 0.025 |
| Clc1ccc(-c2cccc(Cl)c2Cl)cc1Cl [2,3,3',4'-tetrachlorobiphenyl] | 0.038 |
| Clc1ccc(-c2c(Cl)cc(Cl)c(Cl)c2Cl)cc1Cl [2,3,3',4,4',6-hexachlorobiphenyl] | 0.021 |
| Clc1cc(Cl)c(-c2cccc(Cl)c2Cl)cc1Cl [2,2',3,4',5'-pentachlorobiphenyl] | 0.023 |
| Clc1ccc(Cl)c(-c2ccccc2)c1Cl [2,3,6-trichlorobiphenyl] | 0.033 |
| Clc1ccccc1-c1cccc(Cl)c1Cl [2,2',3-trichlorobiphenyl] | 0.042 |
| Clc1ccc(-c2cccc(Cl)c2Cl)c(Cl)c1 [2,2',3,4'-tetrachlorobiphenyl] | 0.028 |
| Clc1cccc(-c2cccc(Cl)c2Cl)c1Cl [2,2',3,3'-tetrachlorobiphenyl] | 0.036 |
| Clc1ccc(-c2ccccc2Cl)c(Cl)c1 [2,2',4-trichlorobiphenyl] | 0.033 |
| Clc1ccc(Cl)c(-c2c(Cl)ccc(Cl)c2Cl)c1 [2,2',3,5',6-pentachlorobiphenyl] | 0.021 |
| Clc1cccc(-c2ccc(Cl)cc2Cl)c1 [2,3',4-trichlorobiphenyl] | 0.033 |
| Clc1cc(Cl)c(Cl)c(-c2cccc(Cl)c2Cl)c1 [2,2',3,3',5-pentachlorobiphenyl] | 0.023 |
| Clc1cc(Cl)c(-c2cc(Cl)c(Cl)c(Cl)c2Cl)c(Cl)c1 [2,2',3,4,4',5,6'-heptachlorobiphenyl] | 0.017 |
| Clc1ccc(Cl)c(-c2ccc(Cl)c(Cl)c2)c1 [2,3',4',5-tetrachlorobiphenyl] | 0.033 |
| Clc1cc(Cl)c(-c2ccccc2Cl)cc1Cl [2,2',4,5-tetrachlorobiphenyl] | 0.027 |
| Clc1ccc(-c2c(Cl)ccc(Cl)c2Cl)c(Cl)c1 [2,2',3,4',6-pentachlorobiphenyl] | 0.019 |
| Clc1cccc(-c2cc(Cl)ccc2Cl)c1 [2,3',5-trichlorobiphenyl] | 0.035 |
| Clc1cccc(-c2c(Cl)cccc2Cl)c1Cl [2,2',3,6'-tetrachlorobiphenyl] | 0.03 |
| Clc1ccc(-c2c(Cl)c(Cl)cc(Cl)c2Cl)c(Cl)c1Cl [2,2',3,3',4,5',6'-heptachlorobiphenyl] | 0.021 |
